Source: patent US20090226398A1, “ANTI-VIRAL COMPOUNDS, COMPOSITIONS, AND METHODS OF USE” (Genelabs Technologies, Inc., priority 2008, published 2009)

Test system: HCV replication
Assay: Replicon Assay (Huh-lucubineo-ET cells, luciferase readout)
Assay type: cell-based
Settings: Hepatitis C virus; ET (Huh-lucubineo-ET) HCV replicon cell line; luciferase activity 48-72 hours after compound addition; 6 dilutions
Protocol: A cell line, ET (Huh-lucubineo-ET) was used for screening of compounds of the present invention for inhibition of HCV replication. The ET cell line was stably transfected with RNA transcripts harboring a I389luc-ubi-neo/NS3-3′/ET; replicon with firefly luciferase-ubiquitin-neomycin phosphotransferase fusion protein and EMCV-IRES driven NS3-5B polyprotein containing the cell culture adaptive mutations (E1202G; T1280I; K1846T) (Krieger at al, 2001 and unpublished). The ET cells were grown in DMEM, supplemented with 10% fetal calf serum, 2 mM Glutamine, Penicillin (100 IU/mL)/Streptomycin (100 μg/mL), 1× nonessential amino acids, and 250 μg/mL G418 (“Geneticin”). They were all available through Life Technologies (Bethesda, Md.). The cells were plated at 0.5−1.0×10^4 cells/well in the 96 well plates and incubated for 24 hrs before adding the test compounds. The compounds were then added to the cells to achieve a final concentration of 5 or 50 μM. Luciferase activity was measured 48-72 hours later by adding a lysis buffer and the substrate (Catalog number Glo-lysis buffer E2661 and Bright-Glo luciferase system E2620 Promega, Madison, Wis.). Cells should not be too confluent during the assay. Percent inhibition of replication was plotted relative to no compound control. For EC50 (effective concentration at which 50% of the maximum inhibition is observed) determinations, 6 dilutions of each compound were used. Compounds were typically diluted 3 fold to span a concentration range of 250 fold. EC50 and similarly TC50 values were calculated by fitting % inhibition at each concentration to the following equation:
% inhibition=100%/[(EC50/[I])^b+1]
where b is Hill's coefficient.

Compound	EC50 [µM]
Fc1ccccc1-c1nc2cnn(Cc3ccc(OC(F)(F)F)cc3)cc-2n1 [Compound 101, 2-(2-Fluoro-phenyl)-5-(4-trifluoromethoxy-benzyl)-5H-imidazo[4,5-d]pyridazine]	≥ 50
Fc1ccccc1-c1nc2cnn(Cc3ccc(Cl)cc3)cc-2n1 [Compound 102, 5-(4-Chloro-benzyl)-2-(2-fluoro-phenyl)-5H-imidazo[4,5-d]pyridazine]	≥ 50
Fc1cccc(-c2nc3cnn(Cc4ccc(-c5ccc(C(F)(F)F)cc5C(F)(F)F)nn4)cc-3n2)c1F [Compound 104, 5-[6-(2,4-Bis-trifluoromethyl-phenyl)-pyridazin-3-ylmethyl]-2-(2,3-difluoro-phenyl)-5H-imidazo[4,5-d]pyridazine]	0.06
COc1ccc(-c2ccc(Cn3cc4nc(-c5cccc(F)c5F)nc-4cn3)nn2)cc1 [Compound 105, 2-(2,3-Difluoro-phenyl)-5-[6-(4-methoxy-phenyl)-pyridazin-3-ylmethyl]-5H-imidazo[4,5-d]pyridazine]	7.4
CCCOc1ccc(-c2ccc(Cn3cc4nc(-c5cccc(F)c5F)nc-4cn3)cc2)cc1 [Compound 109, 2-(2,3-Difluoro-phenyl)-5-(4′-propoxy-biphenyl-4-ylmethyl)-5H-imidazo[4,5-d]pyridazine]	30
CCCCc1ccc(-c2ccc(Cn3cc4nc(-c5cccc(F)c5F)nc-4cn3)nn2)cc1 [Compound 115, 5-[6-(4-Butyl-phenyl)-pyridazin-3-ylmethyl]-2-(2,3-difluoro-phenyl)-5H-imidazo[4,5-d]pyridazine]	1.47
Fc1cccc(-c2nc3cnn(Cc4ccc(-c5ccc(C(F)(F)F)cc5)nn4)cc-3n2)c1F [Compound 116, 2-(2,3-Difluoro-phenyl)-5-[6-(4-trifluoromethyl-phenyl)-pyridazin-3-ylmethyl]-5H-imidazo[4,5-d]pyridazine]	≥ 50
Fc1cccc(-c2nc3cnn(Cc4ccc(-c5ccc(OC(F)(F)F)cc5)nn4)cc-3n2)c1F [Compound 119, 2-(2,3-Difluoro-phenyl)-5-[6-(4-trifluoromethoxy-phenyl)-pyridazin-3-ylmethyl]-5H-imidazo[4,5-d]pyridazine]	3.1
Fc1cccc(-c2nc3cnn(Cc4ccc(-c5ccc(C(F)(F)F)cc5C(F)(F)F)cn4)cc-3n2)c1F [Compound 129, 5-[5-(2,4-Bis-trifluoromethyl-phenyl)-pyridin-2-ylmethyl]-2-(2,3-difluoro-phenyl)-5H-imidazo[4,5-d]pyridazine]	0.019
Fc1cccc(-c2nc3cnn(Cc4ccc(-c5ccc(C(F)(F)F)cc5C(F)(F)F)nc4)cc-3n2)c1F [Compound 130, 5-[6-(2,4-Bis-trifluoromethyl-phenyl)-pyridin-3-ylmethyl]-2-(2,3-difluoro-phenyl)-5H-imidazo[4,5-d]pyridazine]	0.008
COc1ccc(-c2ccc(Cn3cc4nc(-c5cccc(F)c5F)nc-4cn3)c([N+](=O)[O-])c2)c(C(F)(F)F)c1 [Compound 201, 2-(2,3-Difluoro-phenyl)-5-(4-methoxy-3-nitro-2-trifluoromethyl-biphenyl-4-ylmethyl)-5H-imidazo[4,5-d]pyridazine]	0.05
COc1cccc(-c2ccc(Cn3cc4nc(-c5cccc(F)c5F)nc-4cn3)nn2)c1OC [Compound 202, 2-(2,3-Difluoro-phenyl)-5-[6-(2,3-dimethoxy-phenyl)-pyridazin-3-ylmethyl]-5H-imidazo[4,5-d]pyridazine]	≥ 50
Fc1cccc(-c2nc3cnn(Cc4ccc(-c5ccc(-c6cn[nH]c6)cc5C(F)(F)F)nn4)cc-3n2)c1F [Compound 203, 2-(2,3-Difluoro-phenyl)-5-{6-[4-(1H-pyrazol-4-yl)-2-trifluoromethyl-phenyl]-pyridazin-3-ylmethyl}-5H-imidazo[4,5-d]pyridazine]	21
Fc1cccc(-c2nc3cnn(Cc4ccc(-c5ccc(-c6cccnc6)cc5C(F)(F)F)nn4)cc-3n2)c1F [Compound 204, 2-(2,3-Difluoro-phenyl)-5-[6-(4-pyridin-3-yl-2-trifluoromethyl-phenyl)-pyridazin-3-ylmethyl]-5H-imidazo[4,5-d]pyridazine]	0.656
Fc1cccc(-c2nc3cnn(Cc4ccc(-c5ccc(-c6ccccc6)cc5C(F)(F)F)nn4)cc-3n2)c1F [Compound 205, 2-(2,3-Difluoro-phenyl)-5-[6-(3-trifluoromethyl-biphenyl-4-yl)-pyridazin-3-ylmethyl]-5H-imidazo[4,5-d]pyridazine]	0.14
CCc1ccc(-c2ccc(Cn3cc4nc(-c5cccc(F)c5F)nc-4cn3)nn2)cc1 [Compound 206, 2-(2,3-Difluoro-phenyl)-5-[6-(4-ethyl-phenyl)-pyridazin-3-ylmethyl]-5H-imidazo[4,5-d]pyridazine]	≥ 50

Compound	EC50 [µM]
COc1ccc(-c2ccc(Cn3cc4nc(-c5cccc(F)c5F)nc-4cn3)nn2)c(OC)c1 [Compound 207, 2-(2,3-Difluoro-phenyl)-5-[6-(2,4-dimethoxy-phenyl)-pyridazin-3-ylmethyl]-5H-imidazo[4,5-d]pyridazine]	≥ 50
CC(C)Cc1ccc(-c2ccc(Cn3cc4nc(-c5cccc(F)c5F)nc-4cn3)nn2)cc1 [Compound 208, 2-(2,3-Difluoro-phenyl)-5-[6-(4-isobutyl-phenyl)-pyridazin-3-ylmethyl]-5H-imidazo[4,5-d]pyridazine]	≥ 50
CC(C)Oc1ccc(-c2ccc(Cn3cc4nc(-c5cccc(F)c5F)nc-4cn3)nn2)cc1 [Compound 209, 2-(2,3-Difluoro-phenyl)-5-[6-(4-isopropoxy-phenyl)-pyridazin-3-ylmethyl]-5H-imidazo[4,5-d]pyridazine]	≥ 50
Fc1cccc(-c2nc3cnn(Cc4ccc(-c5ccc(-c6ccncc6)cc5C(F)(F)F)nn4)cc-3n2)c1F [Compound 210, 2-(2,3-Difluoro-phenyl)-5-[6-(4-pyridin-4-yl-2-trifluoromethyl-phenyl)-pyridazin-3-ylmethyl]-5H-imidazo[4,5-d]pyridazine]	0.735
Cc1ccc(-c2ccc(Cn3cc4nc(-c5cccc(F)c5F)nc-4cn3)nn2)cc1 [Compound 211, 2-(2,3-Difluoro-phenyl)-5-(6-p-tolyl-pyridazin-3-ylmethyl)-5H-imidazo[4,5-d]pyridazine]	3.47
COc1ccc(-c2ccc(Cn3cc4nc(-c5ccccc5F)nc-4cn3)cn2)c(C(F)(F)F)c1 [Compound 212, 2-(2-Fluoro-phenyl)-5-[6-(4-methoxy-2-trifluoromethyl-phenyl)-pyridin-3-ylmethyl]-5H-imidazo[4,5-d]pyridazine]	0.081
COCc1ccc(-c2ccc(Cn3cc4nc(-c5cccc(F)c5F)nc-4cn3)nn2)cc1 [Compound 213, 2-(2,3-Difluoro-phenyl)-5-[6-(4-methoxymethyl-phenyl)-pyridazin-3-ylmethyl]-5H-imidazo[4,5-d]pyridazine]	≥ 50
CC(C)(C)OCc1ccc(-c2ccc(Cn3cc4nc(-c5cccc(F)c5F)nc-4cn3)nn2)cc1 [Compound 214, 5-[6-(4-tert-Butoxymethyl-phenyl)-pyridazin-3-ylmethyl]-2-(2,3-difluoro-phenyl)-5H-imidazo[4,5-d]pyridazine]	47.4
CC(C)(C)c1ccc(-c2ccc(Cn3cc4nc(-c5cccc(F)c5F)nc-4cn3)nn2)cc1 [Compound 215, 5-[6-(4-tert-Butyl-phenyl)-pyridazin-3-ylmethyl]-2-(2,3-difluoro-phenyl)-5H-imidazo[4,5-d]pyridazine]	11.6
Cn1ccc2cc(-c3ccc(Cn4cc5nc(-c6cccc(F)c6F)nc-5cn4)nn3)ccc21 [Compound 216, 2-(2,3-Difluoro-phenyl)-5-[6-(1-methyl-1H-indol-5-yl)-pyridazin-3-ylmethyl]-5H-imidazo[4,5-d]pyridazine]	≥ 50
CCOC(=O)CCc1ccc(-c2ccc(Cn3cc4nc(-c5cccc(F)c5F)nc-4cn3)nn2)cc1 [Compound 217, 3-(4-{6-[2-(2,3-Difluoro-phenyl)-imidazo[4,5-d]pyridazin-5-ylmethyl]-pyridazin-3-yl}-phenyl)-propionic acid ethyl ester]	52
COc1cccc(-c2ccc(Cn3cc4nc(-c5cccc(F)c5F)nc-4cn3)nn2)c1 [Compound 218, 2-(2,3-Difluoro-phenyl)-5-[6-(3-methoxy-phenyl)-pyridazin-3-ylmethyl]-5H-imidazo[4,5-d]pyridazine]	≥ 50
Fc1cccc(-c2nc3cnn(Cc4ccc(-c5ccc6c(c5)OCO6)nn4)cc-3n2)c1F [Compound 219, 5-(6-Benzo[1,3]dioxol-5-yl-pyridazin-3-ylmethyl)-2-(2,3-difluoro-phenyl)-5H-imidazo[4,5-d]pyridazine]	≥ 50
CCCc1ccc(-c2ccc(Cn3cc4nc(-c5cccc(F)c5F)nc-4cn3)nn2)cc1 [Compound 220, 2-(2,3-Difluoro-phenyl)-5-[6-(4-propyl-phenyl)-pyridazin-3-ylmethyl]-5H-imidazo[4,5-d]pyridazine]	0.52
Cc1cccc(-c2ccc(Cn3cc4nc(-c5cccc(F)c5F)nc-4cn3)nn2)c1 [Compound 221, 2-(2,3-Difluoro-phenyl)-5-(6-m-tolyl-pyridazin-3-ylmethyl)-5H-imidazo[4,5-d]pyridazine]	≥ 50
